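These data come from cells grown in 96-well plates and exposed to compound for 48 hours at five concentrations. At the GI50, growth is halved.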 The source made the active and inactive calls. Rule as the data show it: active = GI50 up to about 1.1 µM and inactive = higher.
Legend:
Assay in all cases: NCI anticancer screen, dose series, 48 h
UACC-257 = system: UACC-257
RPMI-8226 = system: RPMI-8226
A498 = system: A498
CAKI-1 = system: CAKI-1
OVCAR-3 = system: OVCAR-3
NCI/ADR-RES = system: NCI/ADR-RES
IGROV-1 = system: IGROV-1
SN12C = system: SN12C
HT-29 = system: HT-29
HOP-92 = system: HOP-92
HOP-62 = system: HOP-62
ACHN = system: ACHN
COLO 205 = system: COLO 205
PC-3 = system: PC-3
M14 = system: M14
HCT-116 = system: HCT-116
HCC 2998 = system: HCC 2998
CCRF-CEM = system: CCRF-CEM
SF-539 = system: SF-539
SR = system: SR

Measured: GI50

CC(=O)NC(Cc1ccc(O)cc1)C(=O)O (stereo not drawn)
inactive: UACC-257 > 100 µM | RPMI-8226 > 100 µM | A498 > 100 µM | CAKI-1 > 100 µM | OVCAR-3 > 100 µM | NCI/ADR-RES > 100 µM | IGROV-1 > 100 µM | SN12C > 100 µM | HT-29 > 100 µM | HOP-92 > 100 µM | HOP-62 > 100 µM | ACHN > 100 µM | COLO 205 > 100 µM | PC-3 > 100 µM | M14 > 100 µM | HCT-116 > 100 µM | HCC 2998 > 100 µM

CC(C)(C)OC(=O)NC(C)(C)C(=O)NCCC(=O)O
inactive: UACC-257 > 100 µM | RPMI-8226 > 100 µM | A498 > 100 µM | CAKI-1 > 100 µM | OVCAR-3 > 100 µM | NCI/ADR-RES > 100 µM | IGROV-1 > 100 µM | CCRF-CEM > 100 µM | SF-539 > 100 µM | SN12C > 100 µM | HT-29 > 100 µM | HOP-62 > 100 µM | ACHN > 100 µM | COLO 205 > 100 µM | PC-3 > 100 µM | M14 > 100 µM

O=[N+]([O-])/C(C(Cl)=C(Cl)Cl)=C(\Nc1ccccc1)n1nnc2ccccc21
inactive: UACC-257 > 100 µM | RPMI-8226 21.6 µM | A498 > 100 µM | CAKI-1 > 100 µM | OVCAR-3 48.1 µM | NCI/ADR-RES 41.6 µM | CCRF-CEM 21.4 µM | SF-539 32.3 µM | SN12C > 100 µM | HT-29 44.8 µM | HOP-62 30.6 µM | ACHN > 100 µM | COLO 205 27 µM | PC-3 40.6 µM | M14 65 µM | HCT-116 65.3 µM | HCC 2998 > 100 µM

CCCC[C@@H]1CCN2C[C@@H](O)[C@@H](O)[C@H]2[C@@H]1O
inactive: UACC-257 > 100 µM | RPMI-8226 > 100 µM | A498 > 100 µM | CAKI-1 > 100 µM | OVCAR-3 > 100 µM | NCI/ADR-RES > 100 µM | IGROV-1 > 100 µM | CCRF-CEM > 100 µM | SF-539 > 100 µM | HT-29 > 100 µM | HOP-92 > 100 µM | ACHN > 100 µM | COLO 205 > 100 µM | PC-3 > 100 µM | M14 > 100 µM | HCT-116 > 100 µM | HCC 2998 > 100 µM

Cc1cccc(C)c1NC(=O)CCc1nnc2s/c(=C\c3ccc(Cl)cc3)c(=O)n12
inactive: UACC-257 > 100 µM | RPMI-8226 61 µM | A498 > 100 µM | CAKI-1 > 100 µM | OVCAR-3 > 100 µM | IGROV-1 72.1 µM | CCRF-CEM > 100 µM | SR > 100 µM | SF-539 40.6 µM | SN12C > 100 µM | HT-29 > 100 µM | HOP-92 > 100 µM | HOP-62 22 µM | ACHN > 100 µM | COLO 205 92 µM | M14 > 100 µM | HCT-116 25.2 µM | HCC 2998 > 100 µM

C[n+]1ccc(Nc2ccc(NC(=O)c3ccc(Nc4cc[n+](C)c5ccc([N+](=O)[O-])cc45)cc3[N+](=O)[O-])cc2)cc1
inactive: UACC-257 23.6 µM | RPMI-8226 13.3 µM | A498 64 µM | CAKI-1 > 73.1 µM | OVCAR-3 17.8 µM | NCI/ADR-RES > 52.4 µM | IGROV-1 > 100 µM | CCRF-CEM 33.2 µM | SR > 100 µM | SF-539 27 µM | SN12C 48.8 µM | HT-29 > 100 µM | HOP-92 26.9 µM | HOP-62 47.1 µM | ACHN > 100 µM | COLO 205 22.5 µM | M14 63.4 µM | HCT-116 30.5 µM
